# Measurements from US4782074A (priority 1987, dated 1988).
# Key:
# Format in all cases: in vivo
# Erysiphe polygoni = test: Bean Powdery Mildew control (Example A); details: 240 h, seedling bean plants, inoculated 1 day after spray, 10 days, relative to untreated check plants, read-out: % Control BPM
# Description: The compounds of the invention were tested for the control of the Bean Powdery Mildew organism Erysiphe polygoni. Seedling bean plants were sprayed with a 250-ppm solution of the test compound in acetone, water and a nonionic emusifier. The sprayed plants were then inoculated 1 day later with the organism. The plants were maintained for 10 days at temperatures of 68° F. at night with daytime temperatures of 72° F. to 80° F.; relative humidity was maintained at 40% to 60%. The percent disease control provided by a given test compound was based on the percent disease reduction relative to the untreated check plants.
# Uromyces phaseoli tipica = test: Leaf Rust / Bean Rust control (Example F); details: 336 h, pinto bean plants, rated after about 14 days, relative to untreated check plants, read-out: % Control BR
# Description: The Leaf Rust test was made using pinto beans. The pathogen was Uromyces phaseoli tipica. The pinto bean plants were sprayed with a 250-ppm solution of the test compound in an acetone-water mixture containing a nonionic emulsifier. The treated plants were inoculated thereafter with the pathogen and then incubated in an environmental chamber for approximately 20 hours at 100% relative humidity and a temperature of 68° F. to 70° F. The plants were then removed from the chamber, allowed to dry, and then maintained in a greenhouse at a 60% to 80% relative humidity. The rate of infection on the leaves was made after about 14 days. The percent disease control provided by a given test compound was based on the percent disease reduction relative to untreated check plants.
# Phytophthora infestans = test: whole plant or invertebrate; details: in Solanum lycopersicum, 168 h, read-out: % Control TLB
# Plasmopara viticola = test: Grape Downy Mildew control (Example E); details: detached grape leaves, cultivar Emperor, relative to untreated check plants, read-out: % Control GDM
# Description: The compounds of the invention were tested for the control of the Grape Downy Mildew organism Plasmopara viticola. Detached leaves, between 70 mm and 85 mm in diameter, 7-week-old Vitis vinifera cultivar Emperor grape seedlings were used as hosts. The leaves were sprayed with a 250-ppm solution of the test compound in acetone. The sprayed leaves were dried, inoculated with a spore suspension of the organism, placed in a humid environmental chamber and incubated at 66° F. to 68° F. and about 100% relative humidity. After incubation for 2 days, the plants were then held in a greenhouse 7 to 9 days; then the amount of disease control was determined. The percent disease control provided by a given test compound was based on the percent disease reduction relative to untreated check plants.
# [1] = tested on: Alternaria solani conidia; test: Tomato Early Blight control (Example D); details: 288 h, tomato seedlings, Bonny Best, inoculated 1 day after spray, relative to untreated check plants, read-out: % Control TEB
# Description: Compounds of the invention were tested for the control of the Tomato Early Blight organism Alternaria solani conidia. Tomato (variety Bonny Best) seedlings of 6- to 7-weeks old were used. The tomato plants were sprayed with a 250-ppm solution of the test compound in an acetone-and-water solution containing a small amount of a nonionic emulsifier. The sprayed plants were inoculated 1 day later with the organism, placed in the environmental chamber and incubated at 66° F. to 68° F. and 100% relative humidity for 24 hours. Following the incubation, the plants were maintained in a greenhouse for about 12 days. Percent disease control was based on the percent disease development on untreated check plants.
# Piricularia oryzae = test: whole plant or invertebrate; details: Pyricularia oryzae, read-out: % Control RB
# Septoria apii = test: whole plant or invertebrate; details: 336 h, read-out: % Control CLB
SMILES,pest or weed control at 250 ppm (Erysiphe polygoni) [%],pest or weed control at 250 ppm (Uromyces phaseoli tipica) [%],pest or weed control at 250 ppm (Phytophthora infestans) [%],pest or weed control at 250 ppm (Plasmopara viticola) [%],pest or weed control at 250 ppm [1] [%],pest or weed control at 625 ppm (Piricularia oryzae) [%],pest or weed control at 250 ppm (Septoria apii) [%]
"CCCN(CCCc1c(Cl)cccc1Cl)C(=O)c1cccnc1 [Compound 22, N-[3-(2,6-dichlorophenyl)propyl], N-(n-propyl)nicotine amide]",44,0,0,7,88,0,38
CCCN(CC(C)Cc1ccc(C(C)(C)C)cc1)C(=O)c1cccnc1 (centres unmarked) [Compound 23],100,0,7,0,33,0,29
CCCN(CC(C)Cc1ccc(C(C)(C)C)cc1)C(=O)c1cnccn1 (centres unmarked) [Compound 24],72,0,4,7,8,0,17
CCCN(CCCc1c(Cl)cccc1Cl)C(=O)c1cnccn1 [Compound 25],28,0,0,0,29,0,8
CCCN(CCCc1ccc(Cl)cc1Cl)C(=O)c1cnccn1 [Compound 26],11,3,4,13,0,21,10
CCCN(CCCc1ccc(Cl)cc1Cl)C(=O)c1cccnc1 [Compound 27],82,3,0,0,57,71,35
CCCN(Cc1c(Cl)cccc1Cl)C(=O)c1cnccn1 [Compound 28],92,7,4,3,27,0,30
O=C(c1cccnc1)N(CCO)CCOc1c(Cl)cc(Cl)cc1Cl [Compound 30],33,0,7,54,17,0,32
O=C(c1cnccn1)N(CCO)CCOc1c(Cl)cc(Cl)cc1Cl [Compound 31],0,0,0,29,42,0,0
"C=CCN(CCOc1c(Cl)cc(Cl)cc1Cl)C(=O)c1cccnc1 [Compound 32, N-allyl, N-(3-pyridylcarbonyl)ethanolamine 2,4,6-trichlorophenylether]",4,0,0,41,0,0,0
CCOCCN(CCOc1c(Cl)cc(Cl)cc1Cl)C(=O)c1cccnc1 [Compound 33],88,0,0,18,52,0,54
CCOCCN(CCOc1c(Cl)cc(Cl)cc1Cl)C(=O)c1cnccn1 [Compound 34],0,0,0,7,0,38,15
CCN(CCOc1c(Cl)cc(Cl)cc1Cl)C(=O)c1cccnc1 [Compound 35],100,0,0,41,30,96,98
CCN(CCOc1c(Cl)cc(Cl)cc1Cl)C(=O)c1cnccn1 [Compound 36],75,0,0,45,0,0,50
